Assay results: patent US20100263095A1, “METHOD FOR GROWING SUGARCANE” (SYNGENTA CROP PROTECTION, INC., priority 2007, published 2010)

What was measured:
[1] = test system: sugar cane Variety RB 86-7515; assay: Greenhouse pot test: effect of formulated abamectin on vigour; format: in vivo; details: Carretel with one bud; 100 g ai/ha; 42 days after planting
Description: Greenhouse test with sugarcane buds growing in pots were conducted to study the effect of formulated abamectin regarding “vigour”, tillers, plant height, leaf width and culm diameter on sugar cane Variety RB 86-7515.
Twenty 1 L pots were filled with 16 L of clay soil, 1.6 L of sand and 8 g of nitrogen, 28 g of phosphorus (P2O5) and 16 g of potassium (K2O). Six carretels of 4 cm length with only one bud were planted in each pot (treatments 1, 2, 4 and 5). Two stalks with three buds were planted in each control pot (treatments 3 and 6) to simulate conventional planting. A layer of 3 cm of soil was used to cover the carretels. The carretels of treatments 1, 2 were treated with 200 ml/ha of abamectin, by dipping the carretels in the slurry for 3 min, based on the uptake capacity of carretels. The stalks were treated simulating a furrow application at 100 L·ha^−1 of slurry. Experimental design adopted was randomized complete block with four replications. The pots were maintained with adequate moisture during the test. Evaluations of: plant height, leaf width, culm diameter and number of tillers were done at 20, 30 and 42 days after planting.

[2] = test system: sugarcane Variety RB 86-7515; assay: Greenhouse pot test: effect of formulated thiamethoxam on vigour; format: in vivo, sugar cane; details: result in words
Description: This trial was conducted on Variety RB 86-7515.

[3] = test system: sugar cane Variety RB 86-7515; assay: Greenhouse pot test: effect of formulated fipronil on vigour; format: in vivo; details: result in words
Description: Greenhouse test with sugarcane buds growing in pots were conducted to study the effect of fipronil equivalent to an application rate of 200 g. ha^−1 on “vigour”, evaluating tillers, plant height, leaf width and culm diameter on sugar cane Variety RB 86-7515.
Twenty 1 L pots were filled with 16 L of clay soil, 1.6 L of sand and 8 g of nitrogen, 28 g of phosphorus (P2O5) and 16 g of potassium (K2O). Six carretels of 4 cm length with one bud were planted in each pot (treatments 1, 2, 4 and 5). Two stalks with three buds were planted in each control pot (treatments 3 and 6) to simulate conventional planting. A layer of 3 cm of soil was used to cover the carretels. The carretels of treatments 1 and 2 were treated with 200 g ai·ha^−1 of fipronil, by dipping the carretels in the slurry for 3 min, based on the uptake capacity of carretels. The stalks were treated simulating a furrow application at 100 L·ha^−1 of slurry. Experimental design adopted was randomized complete block with four replications. The pots were maintained with adequate moisture during the test. Evaluations of: plant height, leaf width, culm diameter and number of tillers were done at 20, 30 and 42 days after planting.

abamectin was tested, and the Tillers [1] was 14 number.
For CN1COCN(Cc2cnc(Cl)s2)/C1=N\[N+](=O)[O-] [Thiamethoxam, thiamethoxam], the “number of tillers in comparison with the corresponding controls” value ([2]; carretels) was “increased number of tillers”, the “plant height in comparison with the corresponding controls” value ([2]; carretels) was “reduced plant height” and the ““quality” compared with the other treatments” value ([2]; overall assessment, not apparent from the listed parameters) was “increase in “quality” greater than the other treatments”.
For N#Cc1nn(-c2c(Cl)cc(C(F)(F)F)cc2Cl)c(N)c1[S+]([O-])C(F)(F)F (centres unmarked) [Fipronil, fipronil], the “height of the resultant plants in comparison with the control” value [3] was “decreased the height”.
